Results taken from patent US12358918B2, “Aryl hydrocarbon receptor (AHR) activator compounds as cancer therapeutics” (THE BROAD INSTITUTE, INC., priority 2018, dated 2025).
“Also recorded” adds a separate entry of the source.

System: 578 cancer cell lines
Experiment: PRISM multiplexed cellular viability screening
Assay type: cell-based
Settings: relation to FOXA1 / FOXA1 target expression across cell lines
Experimental: The instant discovery was made using large-scale multiplex profiling of existing drugs against 578 cancer cell lines, employing a PRISM multiplexed cellular viability assay.
Parental cell lines were obtained from the Cancer Cell Line Encyclopedia (CCLE) project (1). PRISM cell line barcoding, pooling, and screening was performed as previously described with several improvements to the original method (2). First, the lentiviral vector was modified to encode the unique barcode identifier at the end of the puromycin resistance gene. This enables barcodes to be detected using a variant of the mRNA capture and Luminex detection method developed for the L1000 gene expression assay (3). Second, a set of ten inert barcodes were spiked-in to each well of each plate after cell lysis to control for variation in PCR amplification as detailed below.
Luminex technology produced .Ixb files containing data for each Luminex bead observed during detection. These .Ixb files were processed to compute Median Fluorescence Intensity (MFI) values, calculated as the median of the values obtained for all beads corresponding to a single PRISM barcode.
MFI values were log-transformed (log MFI) and used to perform basic quality control. To detect probable screening artifacts, log MFI values were centered to the median log MFI for each cell line on each plate in order to put the measurements from each cell line on the same scale. For each well on each plate, the median of these centered values was then standardized according to the global median and global MAD across all plate wells in the same position. Data from wells with a standardized score of greater than 5 or less than −5 were excluded from all further processing steps.
For each cell line on each plate, the distribution of MFI values observed for the DMSO-treated negative controls was compared to that of the positive controls using a robust form of the Strictly Standardized Mean Difference (SSMD*)′. Specifically, SSMD* was calculated as: […]
Data corresponding to SSMD values less than 2 were removed before calculating cell viability.
The data in the instant disclosure were produced according to two different screening protocols. In the PR500 protocol, ten inert barcodes were spiked-in to each well of each plate after cell lysis. For data produced using the PR500 protocol, normalized MFI (nMFI) values were computed by taking the ratio of each MFI value against the median of the inert barcodes within each well. […]
Cell viability was calculated as the ratio of nMFI to the median of the nMFI from the DMSO-treated negative controls for each cell line on each plate. […] The final viability values were calculated as the median of the batch-corrected cell viabilities from biological replicates for each cell line, compound and dose. […]

Nc1nc2ccc(Cl)cc2c2nc(-c3ccco3)nn12 [CGS-15943, reference compound]
cell killing profile in PRISM: cell killing profile specific for such FOXA1-dependent cancer cell lines; also recorded: selective killing of FOXA1-high cancer cell lines
